What was measured:
Details in all cases: 48 h
P12-Ichikawa [1] = test: AUC of viability dose-response curve (% viability x log10 dose units); higher = less sensitive
How it was run: (§1)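 Library compounds in DMSO were applied for 48 h at 37°C at 11 threefold doses (47 μM to 0.79 nM) to medium-adapted leukemia cells in 1536-well plates holding 500 or 1000 cells/well. Luminescence from CellTiter-Glo One was normalised plate by plate against DMSO and cell-free wells. Area under the curve came from trapezoidal integration of a log-logistic fit, after scaling curves that rose above full viability and discarding those that failed quality control. The fit had four parameters and used log10 doses.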

SEM cells [2] = test: as above
How it was run: as §1

NOMO1 = test: as above
How it was run: as §1

P12-Ichikawa [3] = test: cell viability relative to DMSO control; higher = less cytotoxic
How it was run: (§2)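 NOMO1 or SEM (500 cells/well) or P12-Ichikawa (1000 cells/well) leukemia cells were adapted for at least four passages in each medium. They were seeded in 1536-well plates (5 μl) and pin-dosed with library compounds in DMSO over an 11-point threefold series, 47 μM to 0.79 nM. CellTiter-Glo One luminescence was read after 48 h at 37°C. Viability is the per-plate percentage relative to DMSO wells, with cell-free wells as background.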

SEM cells [4] = test: as above
How it was run: as §2

CCCC(CCC)C(=O)[O-]
AUC of viability dose-response curve
Details	NOMO1	P12-Ichikawa [1]	SEM cells [2]
HPLM + 10% dialyzed FBS	448	468	461
RPMI 5 mM glucose + 10% FBS	469	472	442
RPMI 5 mM glucose + 10% dialyzed FBS	453	476	468

cell viability [%]
Details	HPLM + 10% dialyzed FBS	RPMI 5 mM glucose + 10% FBS	RPMI 5 mM glucose + 10% dialyzed FBS
P12-Ichikawa [3], 0.000781 µM	87.4	88.6	94.2
P12-Ichikawa [3], 0.00234 µM	96.6	103	102
P12-Ichikawa [3], 0.00702 µM	103	105	102
P12-Ichikawa [3], 0.0211 µM	102	110	114
P12-Ichikawa [3], 0.0632 µM	106	115	112
P12-Ichikawa [3], 0.19 µM	104	119	107
P12-Ichikawa [3], 0.569 µM	102	105	104
P12-Ichikawa [3], 1.71 µM	103	108	101
P12-Ichikawa [3], 5.12 µM	109	105	107
P12-Ichikawa [3], 15.4 µM	105	105	106
P12-Ichikawa [3], 46.1 µM	101	94.8	96.5
SEM cells [4], 0.000781 µM	87	104	–
SEM cells [4], 0.00234 µM	88.8	–	–
SEM cells [4], 0.00702 µM	110	–	–
SEM cells [4], 0.0211 µM	97.5	–	–
SEM cells [4], 0.0632 µM	92.3	–	–
SEM cells [4], 0.19 µM	91	–	–
SEM cells [4], 0.569 µM	103	–	–
SEM cells [4], 1.71 µM	112	–	–
SEM cells [4], 5.12 µM	93.3	–	–
SEM cells [4], 15.4 µM	100	–	–
SEM cells [4], 46.1 µM	88.6	–	–

Reference: the supplement of paper PMC11451515
